# Data from patent US20250243186A1, “PIPERIDINYL INDOLE DERIVATIVES, PREPARATION METHODS AND MEDICINAL USES THEREOF” (HANSOH BIO LLC, priority 2021, published 2025).
# Read-outs that look alike come from different tables or passages of the source.
# Legend:
# [1] = molecular target: T1, Recombinant human Factor B catalytic domain (Homo sapiens (Human), UniProt P00751); assay: Target residence time of Factor B inhibitors by surface plasmon resonance (SPR); settings: for Residence time: 1/koff; for t1/2: binding half-life ln2/koff
# [2] = molecular target: T1, Recombinant human Factor B catalytic domain; assay: biochemical
# [3] = molecular target: T1, Recombinant human Factor B catalytic domain; assay: Factor B binding assay by TR-FRET; settings: 10 nM his-tagged Factor B catalytic domain, 100 nM tracer, 1 h
# [4] = tested on: alternative complement pathway (AP); assay: Ex vivo assessment of plasma PD inhibition (AP MAC deposition ELISA in rat serum); set-up: species or system Sprague Dawley rats; settings: 2 mg/kg oral
# AP complement activation = assay: In vivo assessment of mouse AP complement functional activity (LPS-induced plasma C3b/iC3b/C3c ELISA); set-up: species or system C57BL/6 mice; settings: at 20 h, 20 mg/kg oral
# Method: Female C57BL/6 mice were administered with Example 57 formulation (20 mg/kg in 0.5% (w/v) methyl cellulose, 0.5% (v/v) Tween 80) by oral gavage 20 h before the end of study. To activate complement pathway, lipopolysaccharide (LPS) from Salmonella typhimurium (Sigma) was injected i.p. (2.5 mg/kg) 7.5 h prior to the end of the study. Control mice were given i.p. injection of saline solution and dosed with vehicle by oral gavage. Plasma samples were collected from mice at the end of the study. AP complement activation was assessed by measuring plasma C3 cleavage products C3b/iC3b/C3c with ELISA using rat anti-mouse C3b/iC3b/C3c monoclonal antibody (clone 2/11, Hycult biotech, 0.1ug/well) and goat anti-Rat IgG (whole molecule)-Peroxidase (Sigma) diluted in TBST (TBS/0.05% Tween20).
# [5] = Ocular pharmacokinetic studies in rats; format: in vivo, brown Norway rats; settings: 2 mpk PO
# Method: Three-month-old brown Norway rats were administered the Example compound via oral gavage as a suspension in 2 equiv 1 N HCl+30% PEG300+50% (20% Cremophor EL in water). Ocular tissues from both eyes and plasma were collected from rats per time point at 0.25, 0.5, 1, 6, and 24 h after administration. The ocular tissues collected were the retina and the posterior eye cup (RPE/choroid and posterior sclera). The tissues were diluted with phosphate buffered saline containing 10% acetonitrile and homogenized, centrifuged prior to analyses. The concentrations of the test article were measured in plasma and supernatants of ocular homogenates by HPLC-MS/MS in four individual retinas, four individual posterior eye cups, and two individual plasma samples at each time point. Chromatographic separation was carried out on Waters BEH C18 Column (2.1×50 mm, 1.7 μm) column (MAC-MOD Analytical, Chadds Ford, PA), using a gradient elution method with water and acetonitrile, both containing 0.025% formic acid—1 mM NH4OAc. Mass spectrometric measurements in positive electrospray ionization were directed at quantifying the mass transition with [M+H]^+ as the precursor ion on API6500, triple quadruple mass spectrometer (Sciex, Framingham, MA). The relevant pharmacokinetic parameters were estimated using noncompartmental methods using WinNonlin (Enterprise, version 8.2).
# T1 sequence (P00751 470-764): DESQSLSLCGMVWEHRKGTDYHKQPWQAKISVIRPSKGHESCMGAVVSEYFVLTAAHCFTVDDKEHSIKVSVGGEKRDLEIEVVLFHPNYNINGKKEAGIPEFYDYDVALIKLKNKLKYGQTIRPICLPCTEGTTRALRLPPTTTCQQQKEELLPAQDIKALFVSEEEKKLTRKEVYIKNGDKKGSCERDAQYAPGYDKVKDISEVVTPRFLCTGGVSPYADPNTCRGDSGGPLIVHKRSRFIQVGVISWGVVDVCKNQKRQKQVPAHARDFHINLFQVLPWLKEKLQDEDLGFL
SMILES,Residence time [1] [s],t1/2 [1] [min],Kd [2] [nM],IC50 ([3]; Factor B TR-FRET IC50 (nM)) [nM],also measured
"COc1cc(C)c2[nH]ccc2c1CN1CCC2(C[C@H]1c1ccc(-c3noc(=O)[nH]3)cc1)CC(F)(F)C2 (single isomer, unassigned) [47 (Isomer 1)]",4130,47.7,0.53,< 2,
"COc1cc(C)c2[nH]ccc2c1CN1CCC2(CC1c1ccc(C(=O)O)cc1)CC2F (single isomer, unassigned) [27 (Isomer 2), 4-(1-fluoro-6-((5-methoxy-7-methyl-1H-indol-4-yl)methyl)-6-azaspiro[2.5]octan-5-yl)benzoic acid]",308.9,3.55,4.25,5.3,
"COc1cc(C)c2[nH]ccc2c1CN1CCC2(CC1c1ccc(C(=O)O)cc1)CC2F (single isomer, unassigned) [27 (Isomer 1), 4-(1-fluoro-6-((5-methoxy-7-methyl-1H-indol-4-yl)methyl)-6-azaspiro[2.5]octan-5-yl)benzoic acid]",191.4,2.2,6.25,5,
"CCO[C@H]1CCN(Cc2c(OC)cc(C)c3[nH]ccc23)[C@H](c2ccc(C(=O)O)cc2)C1 [Iptacopan, reference compound]",,,,,"inhibition at 2 mg/kg ([4]; Rattus norvegicus, rats, 24 h post dose, 50% serum, read-out: Serum PD inhibition (%) at 24 h (2 mpk)): -3%"
COc1cc(C)c2[nH]ccc2c1CN1CCC2(C[C@H]1c1ccc(C(=O)O)cc1C)CC(F)(F)C2 [Example 57],,71.28,,,"inhibition in rat ex-vivo PD assay ([4]; at 24 h): sustained inhibition; inhibition in mouse in-vivo PD assay (AP complement activation): sustained inhibition; T½ [5]: 1330 min; Plasma AUC0-last (nM · h) ([5]; plasma): 12,668 nM · h; Retina AUC0-last ([5]; retina): 0.7964 µM·h; IC50 ([3]; read-out: Factor B TR-FRET IC50): < 2 nM"
"COc1cc(C)c2[nH]ccc2c1CN1CCC2(CC1c1ccc(C(=O)O)cc1)CC2(F)F (single isomer, unassigned) [8 (Isomer 1), 4-(1,1-difluoro-6-((5-methoxy-7-methyl-1H-indol-4-yl)methyl)-6-azaspiro[2.5]octan-5-yl)benzoic acid]",,,,7,"AUC(0-t) ([5]; Brown Norway, rat, 2 mg/kg, plasma, read-out: Plasma AUC0-last): 10.8 µM·h; AUC(0-t) ([5]; Brown Norway, rat, 2 mg/kg, retina, read-out: Retina AUC0-last): 2.23 µM·h; half-life ([5]; Brown Norway, rat, in vivo, 2 mg/kg, read-out: T½ (converted)): 384 min"
"COc1cc(C)c2[nH]ccc2c1CN1CC2CC3(CC3)CC2C1c1ccc(C(=O)O)cc1 (single isomer, unassigned) [29 (Isomer 1), 4-(2-((5-methoxy-7-methyl-1H-indol-4-yl)methyl)hexahydro-1H-spiro[cyclopenta[c]pyrrole-5,1′-cyclopropan]-1-yl)benzoic acid]",236.4,2.72,7.03,7.5,
